Assay results reported in patent publication US20230082611A1, “COMPOSITIONS AND METHODS FOR THE TREATMENT OF RESPIRATORY SYNCYTIAL VIRUS” (Cidara Therapeutics, Inc., priority 2019, published 2023).
Read-outs that look alike come from different tables or passages of the source.

Legend:
[1] = test system: RSV (Respiratory Syncytial Virus strain A2); test: RSV cytopathic effects (CPE) assay; assay type: cell-based; conditions: human respiratory syncytial virus
Protocol: The activity of anti-RSV compounds and conjugates was determined using an in vitro cell-based assay following a standard protocol in the field. Briefly, ten four-fold serial dilutions of each test article (TA) starting at 10 μM were prepared in duplicate and incubated with RSV (Respiratory Syncytial Virus strain A2) at a multiplicity of infection (MOI) of 0.01, for one hour. The RSV-TA mix was then added to HEp-2 cells seeded in 96-well plates and incubated for one hour.

[2] = Inherent cytotoxicity run in parallel with the CPE assay (CellTiter-Glo); assay type: cell-based; conditions: human, HEp-2 cells, 4 days post treatment
Protocol: (§1) In parallel with the CPE assay, the inherent cytotoxicity of several test articles was also determined. Briefly, ten four-fold serial dilutions of each TA starting at 10 μM were prepared in triplicate for inoculation with HEp-2 cells in 96-well culture plates. The cell viability was determined four days post treatment using CellTiter-Glo kit.

RSV Long strain = test: RSV microneutralization assay, RSV Long strain; assay type: cell-based; conditions: read-out: RSV Long EC50
Protocol: (§2) Duplicate 10-fold serial dilutions of compound in DMEM with 2% HI-FBS, 1× P/S, 2 mM L-Gln were prepared in 96-well tissue culture plates at 60 μL/well. The RSV Long strain (RetroVirox, San Diego), RSV A2 strain (Virapur, San Diego), RSV B1 strain (RetroVirox, San Diego), or RSV strain CH18537 (RetroVirox, San Diego), were diluted in DMEM with 2% HI-FBS, 1× P/S, 2 mM L-Gln and 60 μL/well added to 60 μL compound for a multiplicity of infection (MOI) of 0.002 (Long, A2), 0.003 (B1), or 0.004 (CH18537). Virus only (no drug) and cells only (no virus, no drug) controls were included on each plate. The compound-virus mix was incubated for 1 h at 37° C. and 5% CO2. After 1 h, medium was removed from HEp-2 cells by aspiration and wells washed once with 100 μL/well 1×PBS pH 7.4 (Fisher cat #MT21040CM). The compound-virus mix (100 μL/well) was added to the cells and incubated for 1 h at 37° C. and 5% CO2 prior to addition of 100 μL/well of DMEM with 2% HI-FBS, 1× P/S, 2 mM L-Gln (200 μL final vol) and incubation at 37° C. and 5% CO2. On day 6 post infection, supernatant was aspirated and cells fixed with 100 μL/well ice-cold 80% acetone in 1×PBS for 20 min at 4° C. The acetone was aspirated and plates air-dried for 20 min at room temperature. The plates were washed 3× with 200 μL/well 1×PBS, 0.05% Tween-20 (PBST) and blocked with 200 μL/well 5% non-fat dry milk (Fisher cat #50-195-952) in PBST for 1 h with shaking (500 rpm) on an orbital plate shaker. The blocking solution was discarded and cells incubated with 100 μL/well mouse anti-F protein antibody (MilliporeSigma cat #MAB8599) diluted 1:2,000 in diluent (blocking solution diluted 1:1 in 1×PBS pH 7.4) for 2 h with shaking. Plates were washed 5× with 300 μL/well PBST and incubated with 100 μL/well HRP-conjugated goat anti-mouse IgG antibody (SouthernBiotech cat #1030-05) diluted 1:1,000 in diluent for 1 h with shaking. Plates were washed 5× with 300 μL/well PBST and incubated with 100 μL/well TMB substrate (Fisher cat #BDB555214) for ˜5 min. The reaction was stopped with 100 μL/well 1N H2SO4. Absorbance was read at 450 nm with an EnSpire multimode plate reader (PerkinElmer). The mean A450 for the cells only control was subtracted from all A450 values, and the percent virus neutralisation calculated for each compound concentration, relative to the virus only control.

HEp-2 cells = test: Inherent cytotoxicity run in parallel with the CPE assay (CellTiter-Glo); assay type: cell-based; conditions: 4 days post treatment, DMSO, value in %
Protocol: as §1

RSV A2 strain = test: RSV microneutralization assay, RSV A2 strain; assay type: cell-based; conditions: MOI 0.002, HEp-2 cells, day 6
Protocol: as §2, with “HEp-2 cells (ATCC #CCL-23) were seeded at 5E4/well/200 μL in DMEM (Fisher cat #11965118) supplemented with 10% heat-inactivated (HI) fetal bovine serum (HI-FBS; Fisher cat #10-082-147), 1× penicillin-streptomycin (P/S, 100 μg/mL; Fisher cat #MT30002C), and 1× L-glutamine (L-Gln, 2 mM; Fisher cat #25030-164) in 96-well tissue culture treated plates (Fisher cat #08-772-17) and incubated overnight at 37° C. and 5% CO2. Duplicate” for “Duplicate”

RSV B1 strain = test: RSV microneutralization assay, RSV B1 strain; assay type: cell-based; conditions: human respiratory syncytial virus; MOI 0.003, HEp-2 cells, day 6
Protocol: (§3) HEp-2 cells (ATCC #CCL-23) were seeded at 5E4/well/200 μL in DMEM (Fisher cat #11965118) supplemented with 10% heat-inactivated (HI) fetal bovine serum (HI-FBS; Fisher cat #10-082-147), 1× penicillin-streptomycin (P/S, 100 μg/mL; Fisher cat #MT30002C), and 1× L-glutamine (L-Gln, 2 mM; Fisher cat #25030-164) in 96-well tissue culture treated plates (Fisher cat #08-772-17) and incubated overnight at 37° C. and 5% CO2. Duplicate 10-fold serial dilutions of compound in DMEM with 2% HI-FBS, 1× P/S, 2 mM L-Gln were prepared in 96-well tissue culture plates at 60 μL/well. The RSV Long strain (RetroVirox, San Diego), RSV A2 strain (Virapur, San Diego), RSV B1 strain (RetroVirox, San Diego), or RSV strain CH18537 (RetroVirox, San Diego), were diluted in DMEM with 2% HI-FBS, 1× P/S, 2 mM L-Gln and 60 μL/well added to 60 μL compound for a multiplicity of infection (MOI) of 0.002 (Long, A2), 0.003 (B1), or 0.004 (CH18537). Virus only (no drug) and cells only (no virus, no drug) controls were included on each plate. The compound-virus mix was incubated for 1 h at 37° C. and 5% CO2. […] Absorbance was read at 450 nm with an EnSpire multimode plate reader (PerkinElmer). The mean A450 for the cells only control was subtracted from all A450 values, and the percent virus neutralisation calculated for each compound concentration, relative to the virus only control.

RSV = conditions: prophylactic use; cited from earlier work
RSV strain CH18537 = test: RSV microneutralization assay, RSV strain CH18537; assay type: cell-based; conditions: human respiratory syncytial virus; MOI 0.004, HEp-2 cells, day 6
Protocol: as §3

[3] = 96 h, RSV A2, MOI 0.01, HEp-2 cells, day 4, crystal violet, average of duplicate wells, read-out: EC50
[4] = human respiratory syncytial virus, MOI 0.002, HEp-2 cells, day 6
[5] = human respiratory syncytial virus, HEp-2, […]
[6] = human respiratory syncytial virus

NC(=O)c1ncn([C@@H]2O[C@H](CO)[C@@H](O)[C@H]2O)n1 [Ribavirin, reference compound]
EC50 [1, 3]: 25800 nM
CC50 at 4 days [2]: 174000 nM

C#CCOCCOCCOCCOCCOCCOCCOCCOCCNC(=O)CN(CC(=O)NCCOCCOCCOCCOCCOCCOCCOCCOCCOCCOCCOCCOC)C(=O)CCCCN[C@H]1CCN(c2nc3cc(C4CCCCN4C(=O)c4cc(Cl)ccc4NS(C)(=O)=O)nn3cc2C)C1 (some centres unmarked) [Int-26]
EC50 (RSV Long strain; [4]): 170 nM

C#CCOCCOCCOCCOCCC(=O)N[C@H]1CCN(c2nc3cc([C@@H]4CCCCN4C(=O)c4cc(Cl)ccc4NS(C)(=O)=O)nn3cc2C)C1 [Int-9]
EC50 [1, 3]: 272 nM
CC50 at 4 days [2]: 49700 nM
EC50 (RSV Long strain; [4]): 1500 nM

C#CCOCCOCCOCCOCCN1CCN(CCCCN[C@H]2CCN(c3nc4cc([C@@H]5CCCCN5C(=O)c5cc(Cl)ccc5NS(C)(=O)=O)nn4cc3C)C2)CC1 [Int-24]
EC50 (RSV Long strain; [4]): > 1000 nM

C#CCOCCOCCOCCOCCOCCOCCOCCOCCNC(=O)CN(CC(=O)O)C(=O)CCCCN[C@H]1CCN(c2nc3cc([C@@H]4CCCCN4C(=O)c4cc(Cl)ccc4NS(C)(=O)=O)nn3cc2C)C1 [Int-25]
EC50 (RSV Long strain; [4]): 92 nM

C[S+](C)[O-] [DMSO]
CC50 (HEp-2 cells): 1.17%

C#CCOCCOCCOCCOCCOCCOCCOCCOCCN[C@H]1CCN(c2nc3cc([C@@H]4CCCCN4C(=O)c4cc(Cl)ccc4NS(C)(=O)=O)nn3cc2C)C1 [Int-8]
EC50 ([1]; HEp-2, 96 h): 2.29 nM
EC50 (RSV Long strain; [5]): 43 nM

C#CCOCCOCCOCCOCCN[C@@H]1CN(c2nc3cc([C@@H]4CCCCN4C(=O)c4cc(Cl)ccc4NS(C)(=O)=O)nn3cc2C)C[C@@H]1O [Int-03]
EC50 (RSV Long strain; [4]): > 1000 nM

C#CCOCCOCCOCCOCCC(=O)N[C@@H](CS(=O)(=O)O)C(=O)N1CCN(CCCN[C@H]2CCN(c3nc4cc([C@@H]5CCCCN5C(=O)c5ccc(Cl)cc5NS(C)(=O)=O)nn4cc3C)C2)CC1 [Int-23]
EC50 (RSV Long strain; [4]): > 1000 nM

C#CCOCCOCCOCCOCCn1c(CN2C(=O)C3(CCN(C(=O)OC(C)(C)C)CC3)c3ccncc32)nc2cc(Cl)ccc21 [Int-41]
EC50 (RSV A2 strain; [6]): 15 nM
EC50 (RSV B1 strain): 3.6 nM
EC50 (RSV Long strain; [4]): 14 nM

C#CCOCCOCCOCCOCCC(=O)N(CC(=O)NCCOCCOCCOCCOCCOCCOCCOCCOCCOCCOCCOCCOC)CC(=O)NCCn1cc(COCCOCCOCCOCCOCCOCCOCCCCN[C@H]2CCN(c3nc4cc([C@@H]5CCCCN5C(=O)c5cc(Cl)ccc5NS(C)(=O)=O)nn4cc3C)C2)nn1 [Int-27]
EC50 (RSV Long strain; [4]): 200 nM

Cc1nnnn1N=Cc1ccc(O)c(C(c2ccc(O)cc2)c2cc(C=Nn3nnnc3C)ccc2O)c1 (centres unmarked) [VP14637, MDT 637, reference compound]
EC50 (RSV Long strain; [4]): 0.09 nM

C#CCOCCOCCNC(=N)N[C@H]1CCN(c2nc3cc([C@@H]4CCCCN4C(=O)c4cc(Cl)ccc4NS(C)(=O)=O)nn3cc2C)C1 [Int-6]
EC50 [1, 3]: 2200 nM

C#CCOCCOCCOCCOCCOCCOCCOCCCCN[C@H]1CCN(c2nc3cc([C@@H]4CCCCN4C(=O)c4cc(Cl)ccc4NS(C)(=O)=O)nn3cc2C)C1 [Int-05]
EC50 (RSV Long strain; [4]): > 1000 nM

C#CCOCCOCCOCCOCCO[C@@H]1CN(c2nc3cc([C@@H]4CCCCN4C(=O)c4cc(Cl)ccc4NS(C)(=O)=O)nn3cc2C)C[C@H]1N [Int-04]
EC50 (RSV Long strain; [4]): > 1000 nM

C#CCOCCOCCOCCOCCC(=O)NCCCCn1c(CN2C(=O)C3(CCN(C(=O)OC(C)C)CC3)c3ccncc32)nc2cc(Cl)ccc21 [Int-34]
EC50 (RSV Long strain; [4]): 0.13 nM

C#CCOCCOCCOCCOCCC(=O)NCCCCn1c(CN2C(=O)C3(CCN(C(=O)OC(C)(C)C)CC3)c3ccncc32)nc2cc(Cl)ccc21 [Int-35]
EC50 (RSV A2 strain; [6]): 0.74 nM
EC50 (RSV Long strain; [4]): 0.34 nM

Palivizumab
EC50 (RSV A2 strain): 21 nM
effective at reducing hospitalization rates (RSV): 60%
EC50 (RSV Long strain; MOI 0.002, HEp-2 cells, day 6): 17 nM

C#CCOCCOCCOCCOCCN1CCN(CCCN[C@H]2CCN(c3nc4cc([C@H]5CCCCN5C(=O)c5cc(Cl)ccc5NS(C)(=O)=O)nn4cc3C)C2)CC1 [Int-10]
EC50 (RSV Long strain; [5]): 97 nM

Cc1cn2nc([C@@H]3CCCCN3C(=O)c3cc(Cl)ccc3NS(C)(=O)=O)cc2nc1N1CC[C@H](N)C1 [Presatovir, reference compound]
EC50 (RSV A2 strain; [6]): 0.014 nM
EC50 [1, 3]: 0.0769 nM
EC50 (RSV strain CH18537): 0.32 nM
EC50 (RSV B1 strain): 0.82 nM
EC50 (RSV Long strain; [4]): 0.0084 nM

C#CCOCCOCCOCCOCCNCC1CN(c2nc3cc([C@@H]4CCCCN4C(=O)c4cc(Cl)ccc4NS(C)(=O)=O)nn3cc2C)C1 [Int-01]
EC50 (RSV Long strain; [5]): 98 nM

C#CCOCCOCCOCCOCCN[C@H]1CCN(c2nc3cc(C4CCCCN4C(=O)c4cc(Cl)ccc4NS(C)(=O)=O)nn3cc2C)C1 (some centres unmarked) [Int-7]
EC50 [1, 3]: 0.353 nM
CC50 at 4 days [2]: 10400 nM
EC50 (RSV Long strain; [4]): 18 nM

C#CCOCCOCCOCCOCCO[C@H]1CN(c2nc3cc([C@@H]4CCCCN4C(=O)c4cc(Cl)ccc4NS(C)(=O)=O)nn3cc2C)C[C@H]1N [Int-02]
EC50 (RSV Long strain; [4]): 110 nM
